In the supplement of paper PMC4862054:

Assays:
Assay in all cases: normalised viability (% of control), CellTiter-Blue; higher = more viable cells (about 100 = DMSO control)
Settings in all cases: incubation time: 72 h
HDQ-P1 = test system: HDQ-P1
In short: (§1)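 The reported quantity is normalised viability at a single listed concentration of the series. Compound in 5 µl medium was pre-dispensed into 384-well plates and 20 µl of breast cancer cell suspension was added for 72 h. A 2 h, 37 °C CellTiter-Blue step (2.5 µl) preceded fluorescence reading at 560/590 nm, and plates were normalised to vehicle (100) and a positive kill control (0).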

DU-4475 = test system: DU-4475
In short: as §1

BT-474 = test system: BT-474
In short: as §1

CAL-148 = test system: CAL-148
In short: as §1

CAL-85-1 = test system: CAL-85-1
In short: as §1

MDA-MB-468 = test system: MDA-MB-468
In short: as §1

HCC1143 = test system: HCC1143
In short: as §1

BT-549 = test system: BT-549
In short: as §1

HCC1937 = test system: HCC1937
In short: as §1

MDA-MB-231 = test system: MDA-MB-231
In short: as §1

SK-BR-3 = test system: SK-BR-3
In short: as §1

CC1(C)CCC(c2ccc(Cl)cc2)=C(CN2CCN(c3ccc(C(=O)NS(=O)(=O)c4ccc(N[C@H](CCN5CCOCC5)CSc5ccccc5)c(S(=O)(=O)C(F)(F)F)c4)cc3)CC2)C1 [Navitoclax]
normalised viability [%]
Settings	3 nM	10 nM	30 nM	100 nM	1000 nM	10000 nM
BT-474	–	96.3	–	–	95.2	63
BT-549	–	80.7	–	–	79.7	78.1
CAL-85-1	84.1	–	81.1	85.3	–	–
CAL-148	85.1	–	88.2	89.2	–	–
DU-4475	88.7	–	72.9	70.3	–	–
HCC1143	–	71.8	–	–	78.1	65.3
HCC1937	–	87.6	–	–	85.8	85
HDQ-P1	81.4	–	79.7	79.3	–	–
MDA-MB-231	–	74.7	–	–	55.7	30.6
MDA-MB-468	–	91.9	–	–	81.6	71.2
SK-BR-3	–	83.8	–	–	86	73.2

C=CCN(/C=C1/C(=O)O[C@H](COC)[C@@]2(C)C1=C(O)C(=O)C1=C2[C@H](OC(C)=O)C[C@]2(C)C(=O)CC[C@@H]12)CC=C [PX-866]
normalised viability [%]
Settings	3 nM	10 nM	30 nM	100 nM	1000 nM	10000 nM
BT-474	–	118	–	–	87.3	41.9
BT-549	–	87.8	–	–	81.9	57
CAL-85-1	111	–	97.4	102	–	–
CAL-148	97.2	–	105	107	–	–
DU-4475	109	–	96.1	92.7	–	–
HCC1143	–	91.6	–	–	80.8	60.8
HCC1937	–	106	–	–	73.6	59.7
HDQ-P1	113	–	128	114	–	–
MDA-MB-231	–	92.9	–	–	72.6	50
MDA-MB-468	–	112	–	–	62.7	21.9
SK-BR-3	–	109	–	–	61.7	28.5

CCN(CC)CCCC(C)Nc1ccnc2cc(Cl)ccc12 (stereo unspecified) [Chloroquine]
normalised viability [%]
Settings	0.297 nM	0.99 nM	2.97 nM	9.9 nM	99 nM	990 nM
BT-474	–	109	–	–	108	111
BT-549	–	88.3	–	–	95.6	108
CAL-85-1	95.5	–	90	97	–	–
CAL-148	88.5	–	89.1	89.4	–	–
DU-4475	106	–	89.8	112	–	–
HCC1143	–	97.8	–	–	89.2	93.4
HCC1937	–	100	–	–	111	100
HDQ-P1	107	–	113	116	–	–
MDA-MB-231	–	113	–	–	129	98.7
MDA-MB-468	–	107	–	–	115	98.4
SK-BR-3	–	103	–	–	93.4	101

CCNC(=O)c1noc(-c2cc(C(C)C)c(O)cc2O)c1-c1ccc(CN2CCOCC2)cc1 [NVP-AUY922]
normalised viability [%]
Settings	0.3 nM	1 nM	3 nM	10 nM	100 nM	1000 nM
BT-474	–	102	–	–	27.7	22.3
BT-549	–	113	–	–	29.3	31.7
CAL-85-1	101	–	96.8	102	–	–
CAL-148	98.7	–	108	112	–	–
DU-4475	114	–	109	87.6	–	–
HCC1143	–	119	–	–	45	47.7
HCC1937	–	58.5	–	–	24.7	30.7
HDQ-P1	94	–	97.8	64.9	–	–
MDA-MB-231	–	140	–	–	39.1	31
MDA-MB-468	–	106	–	–	27.3	23.3
SK-BR-3	–	106	–	–	16.2	16.8

CNC(=O)c1ccccc1Sc1ccc2c(/C=C/c3ccccn3)n[nH]c2c1 [Axitinib]
normalised viability [%]
Settings	3 nM	10 nM	30 nM	100 nM	1000 nM	10000 nM
BT-474	–	112	–	–	105	76.4
BT-549	–	96.6	–	–	92.6	42.5
CAL-85-1	93	–	84	104	–	–
CAL-148	83	–	95.3	90.1	–	–
DU-4475	107	–	114	97	–	–
HCC1143	–	89.9	–	–	96.2	57.2
HCC1937	–	41.1	–	–	81.8	42.6
HDQ-P1	101	–	106	92.1	–	–
MDA-MB-231	–	102	–	–	88.7	72.1
MDA-MB-468	–	108	–	–	99.4	43.8
SK-BR-3	–	91	–	–	88.9	63.8

Nc1ccn([C@@H]2O[C@H](CO)[C@@H](O)C2(F)F)c(=O)n1 [Gemcitabine]
normalised viability [%]
Settings	0.3 nM	1 nM	3 nM	10 nM	100 nM	1000 nM
BT-474	–	119	–	–	103	101
BT-549	–	92.8	–	–	69.9	61
CAL-85-1	96.6	–	85.1	85.3	–	–
CAL-148	102	–	92.1	65.2	–	–
DU-4475	95.1	–	88.3	98.2	–	–
HCC1143	–	101	–	–	49.7	45.8
HCC1937	–	92.3	–	–	38.8	27.9
HDQ-P1	110	–	108	100	–	–
MDA-MB-231	–	97.9	–	–	72.1	72.2
MDA-MB-468	–	104	–	–	35.5	24.6
SK-BR-3	–	108	–	–	47	40.9

C=CCn1c(=O)c2cnc(Nc3ccc(N4CCN(C)CC4)cc3)nc2n1-c1cccc(C(C)(C)O)n1 [MK1775]
normalised viability [%]
Settings	3 nM	10 nM	30 nM	100 nM	1000 nM	10000 nM
BT-474	–	94	–	–	33.9	35.7
BT-549	–	103	–	–	31	9.32
CAL-85-1	79.6	–	80.9	78.6	–	–
CAL-148	85.1	–	92.8	81.5	–	–
DU-4475	87.8	–	98.3	75.7	–	–
HCC1143	–	109	–	–	55.7	23.7
HCC1937	–	77.7	–	–	34.1	27.2
HDQ-P1	92.9	–	98.5	94.4	–	–
MDA-MB-231	–	84	–	–	26.9	16.9
MDA-MB-468	–	110	–	–	46.3	10.1
SK-BR-3	–	79.8	–	–	9.36	10.2
